Patent US6713506B2, “Tea polyphenol esters and analogs thereof for cancer prevention and treatment” (University of South Florida, priority 2000, dated 2004)
“Also recorded” adds a separate entry of the source.

Legend:
[1] = test system: LNCaP prostate cancer cells; assay: Cell cycle analysis by flow cytometry, LNCaP cells; assay type: cell-based, human; details: 10 μM, 36 h
Experimental: (§1) FIG. 6. Cell cycle analysis. Asynchronous Jurkat, LNCaP, WI-38, and VA-13 cells are treated with 10 μM EGCG and harvested at the time points indicated. Cells are prepared and analyzed by flow cytometry as described in the The Materials and Methods section of Example 1. Growth arrest is determined by the increase in the percentage of G1 population.
(§2) Cell cycle analysis—Cell cycle analysis based on DNA content is performed as follows. Cells are harvested, counted and washed twice with PBS. Cells (5×10^6 ) are then suspended in 0.5 ml PBS, pipetted and fixed in 5 ml of 70% ethanol for at least 2 h at −20° C. Cells are centrifuged, resuspended in 1 ml of propidium iodide staining solution (50 μg propidium iodide, 100 units RNase A and 1 mg glucose per ml PBS) and incubated at room temperature for 30 min. The cells are then analyzed with FACScan (Becton Dickinson Immunocytometry, CA.), ModFit LT and WinMDI V.2.8 cell cycle analysis software (Verity Software, Topsham, Me.). The cell cycle distribution is shown as the percentage of cells containing G1, S, G2, and M DNA judged by propidium iodide staining.

[2] = test system: p27 and IκB-α in LNCaP cells; assay: Western blot of proteasome substrates in LNCaP cells; assay type: cell-based, human; details: 1 or 10 μM, 12 h
Experimental: FIG. 5. Western blot analysis. A, Jurkat T cells are treated with 1 or 10 μM of EGCG or EGC for 12 h, or B, C, 25 μM of EGCG for various times, followed by Western blot assay using specific antibodies to p27, IκB-α, ubiquitin or actin, as indicated. MWs of IκB-α and actin are 40 and 43 kDa, respectively. The band of 56 kDa, indicated by an arrow in (B), is an ubiquitinated or phosphorylated form of IκB-α. The bands indicated in (C) are ubiquitin-containing proteins. D, LNCaP cells are treated with 1 or 10 μM of EGCG for 12 h. Western bot is performed as described above. E, F, Jurkat T cells are pretreated with 10 μg/ml cycloheximide for 2 hr, followed by co-incubation with 1 or 10 μM of EGCG for 8 or 12 hr as indicated. The p70 is a putative ubiquitinated p27-containing complex (An et al., 1998, Cell Death Differ 5: 1062-75).
Western blot analysis—Western blot assay is performed as described previously (An et al., (1998) Cell Death Differ 5(12), 1062-75) using specific antibodies to p27^Kip (monoclonal; Pharmingen), IκB-α (polyclonal; Santa Cruz), ubiquitin (polyclonal; Sigma) or actin (polyclonal; Santa Cruz). In brief, Jurkat T or LNCaP cells are treated with EGCG or EGC in dose-response or time-dependent manner. Cells are harvested and lysated using the whole lysis buffer. […] Immunocomplexes are detected using the ECL detection reagents kit (Amersham, Piscataway, N.J.).

[3] = biological target: T1, proteasomal trypsin-like activity in Jurkat T cell extract (Homo sapiens, UniProt Q99436); assay: Proteasome trypsin-like activity in Jurkat T cell free extract; assay type: biochemical; details: EGCG 10 μM
T1 construct: endogenous in cells; host or cells: Jurkat T cells (whole cell extract or intact cells)
Experimental: Inhibition of the proteasome activity with cell free extracts by tea polyphenols—The whole cell extract (3.5 μg) from Jurkat T cells is incubated for 90 min at 37° C. with 20 μM of a fluorogenic peptide substrate, Suc-Leu-Leu-Val-Tyr-AMC (for the chymotrypsin-like activity), Z-Leu-Leu-Glu-AMC [peptidyl-glutamyl peptide-hydrolyzing (PGPH) activity; Calbiochem], and Z-Gly-Gly-Arg-AMC (for the trypsin-like activity; Bachem), in 100 μl of the assay buffer with or without 10 μM EGCG or EGC. The hydrolyzed AMCs are quantified as described above.

[4] = biological target: T2, chymotrypsin-like activity in living prostate (PC-3) cancer cells (Homo sapiens, UniProt P28074); assay: Proteasome chymotrypsin-like activity in living PC-3 cells; assay type: cell-based
T2 construct: endogenous in cells; host or cells: PC-3 cells (intact)
Experimental: Inhibition of the proteasome activity in living cells by tea polyphenols—To measure inhibition of the chymotrypsin-like activity in living tumor cells, Jurkat T (1×10^5 cells/ml/well), MCF7 or PC-3 cells (1×10^4 cells/ml/well) are cultured in 24-well plates. These cells are first incubated for 12 h with various concentrations of EGCG, EGC, β-lactone or LLnL, followed by an additional 2 h-incubation with fluorogenic peptide substrates, Suc-Leu-Leu-Val-Tyr-AMC for the chymotrypsin-like activity and Z-Gly-Gly-Arg-AMC for the trypsin-like activity. After that, cell medium (200 μl per sample) is collected and used for measurement of free AMCs.
(b) The peptide substrate for the proteasomal chymotrypsin-like activity, Suc-Leu-Leu-Val-Tyr-AMC, is used to measure the proteasome activity in intact Jurkat, MCF-7 and PC-3 cells, which is inhibitable by co-incubation with EGCG (FIG. 16C). A similar assay is performed to measure potency and selectivity of EGCG (vs. EGC) or ECG (vs. EC) in the selected cell lines. […] After that, medium is collected and the liberated AMCs in the medium are measured by fluorometer to measure in vivo potency and selectivity of tea polyphenols.

normal human WI-38 cells = assay: Cell cycle analysis by flow cytometry, WI-38 cells; assay type: cell-based; details: WI-38, 10 μM
Experimental: as §1, §2

Structure (SMILES): O=C(O[C@@H]1Cc2c(O)cc(O)cc2O[C@@H]1c1cc(O)c(O)c(O)c1)c1cc(O)c(O)c(O)c1 [EGCG, (−)-epigallocatechin-3-gallate]
- increase in G1 population [1]: ~25%
- p27 and IκB protein expression [2]: accumulated
- effect on proteasomal trypsin-like activity (in words) [3]: does not affect
- inhibition of chymotrypsin-like activity in living PC-3 cells (in words) [4]: inhibitable; also recorded: inhibits
- decrease in G1 population (normal human WI-38 cells; 12 h): 22%
- increase in G2/M population (normal human WI-38 cells; 12 h): 6%
- increase in S population (normal human WI-38 cells; 12 h): 16%
- increase in G1 population (normal human WI-38 cells; 36 h): 22%
